Reference: PubChem BioAssay (NCI)
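A five-concentration, 48-hour dose response in 96-well plates underlies each endpoint, interpolated linearly between surrounding concentrations. TGI is the concentration that stops growth completely.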

What was measured:
Assay in all cases: inhibition of tumour cell growth, NCI panel, 48 h
[1] = test system: 786-0 renal
[2] = test system: A498 renal
[3] = test system: A549 NSCLC
[4] = test system: ACHN renal
[5] = test system: BT-549 breast
[6] = test system: CAKI-1 renal
[7] = test system: CCRF-CEM leukemia
[8] = test system: COLO 205 colon
[9] = test system: DU-145 prostate
[10] = test system: EKVX NSCLC
[11] = test system: HCC-2998 colon
[12] = test system: HCT-116 colon
[13] = test system: HCT-15 colon
[14] = test system: HL-60(TB) leukemia
[15] = test system: HOP-62 NSCLC
[16] = test system: HOP-92 NSCLC
[17] = test system: HS 578T breast
[18] = test system: HT29 colon
[19] = test system: IGROV1 ovarian
[20] = test system: K-562 leukemia
[21] = test system: KM12 colon
[22] = test system: LOX IMVI melanoma
[23] = test system: M14 melanoma
[24] = test system: MALME-3M melanoma
[25] = test system: MCF7 breast
[26] = test system: MDA-MB-231 breast
[27] = test system: MDA-MB-435
[28] = test system: MDA-N
[29] = test system: MOLT-4 leukemia
[30] = test system: NCI-H226 lung
[31] = test system: NCI-H23 lung
[32] = test system: NCI-H460 lung
[33] = test system: NCI-H522 lung
[34] = test system: NCI/ADR-RES ovarian
[35] = test system: OVCAR-3 ovarian
[36] = test system: OVCAR-4 ovarian
[37] = test system: OVCAR-5 ovarian
[38] = test system: OVCAR-8 ovarian
[39] = test system: PC-3 prostate
[40] = test system: RPMI-8226 leukemia
[41] = test system: RXF 393 renal
[42] = test system: SF-268 CNS
[43] = test system: SF-295 CNS
[44] = test system: SF-539 CNS
[45] = test system: SK-MEL-2 melanoma
[46] = test system: SK-MEL-28 melanoma
[47] = test system: SK-MEL-5 melanoma
[48] = test system: SK-OV-3 ovarian
[49] = test system: SN12C renal
[50] = test system: SNB-19 CNS
[51] = test system: SNB-75 CNS
[52] = test system: SR leukemia
[53] = test system: SW-620 colon
[54] = test system: T-47D breast
[55] = test system: TK-10 renal
[56] = test system: U251 CNS
[57] = test system: UACC-257 melanoma
[58] = test system: UACC-62 melanoma
[59] = test system: UO-31 renal
[60] = test system: DMS 114 small cell lung
[61] = test system: KM20L2 colon
[62] = test system: LXFL 529 NSCLC
[63] = test system: M19-MEL melanoma
[64] = test system: SNB-78 CNS

Compound `CCOC(=O)/C=C(/C(=O)OCC)n1cc(C)c(=O)n(/C(=C/C(=O)OCC)C(=O)OCC)c1=O` has a TGI [1] of 2.56 µM, a TGI [2] of 36.8 µM and a TGI [3] of 31.8 µM. It also gave a TGI [4] of 4.08 µM, a TGI [5] of 15.9 µM and a TGI [6] of 2.14 µM. For the same compound, the TGI [7] was 1.53 µM, the TGI [8] was 2.87 µM and the TGI [9] was 26.6 µM. For the same compound, the TGI [10] was 13.9 µM, the TGI [11] was 22.1 µM and the TGI [12] was 4.88 µM. It also gave a TGI [13] of 4.01 µM, a TGI [14] of 0.674 µM and a TGI [15] of 43.3 µM. It also gave a TGI [16] of 2.91 µM, a TGI [17] of 45.7 µM and a TGI [18] of 7.72 µM. For the same compound, the TGI [19] was 17 µM, the TGI [20] was 3.81 µM and the TGI [21] was 30.1 µM. It also gave a TGI [22] of 7.59 µM, a TGI [23] of 6.48 µM and a TGI [24] of 4.36 µM. The TGI [25] was 5.5 µM, the TGI [26] was 9.01 µM and the TGI [27] was 7.76 µM. The TGI [28] was 13.7 µM, the TGI [29] was 5.78 µM and the TGI [30] was 12.6 µM. The TGI [31] was 12.9 µM, the TGI [32] was 37.1 µM and the TGI [33] was 1.88 µM. The TGI [34] was 26.1 µM, the TGI [35] was 7.7 µM and the TGI [36] was > 22.3 µM. It also gave a TGI [37] of 14.3 µM, a TGI [38] of 13 µM and a TGI [39] of 12.3 µM. The TGI [40] was 4.52 µM, the TGI [41] was 3.73 µM and the TGI [42] was 32.8 µM. The TGI [43] was 33.5 µM, the TGI [44] was 23.5 µM and the TGI [45] was 33 µM. It also gave a TGI [46] of 5.04 µM, a TGI [47] of 20.8 µM and a TGI [48] of 31.5 µM. The TGI [49] was 8.58 µM, the TGI [50] was 36.3 µM and the TGI [51] was 24 µM. For the same compound, the TGI [52] was 5.72 µM, the TGI [53] was 3.03 µM and the TGI [54] was 7.86 µM. It also gave a TGI [55] of 4.06 µM, a TGI [56] of 19.3 µM and a TGI [57] of 10.9 µM. The TGI [58] was 19.4 µM and the TGI [59] was 10.8 µM.

`CCCN=Cc1c(O)c(O)c(C(C)C)c2cc(C)c(-c3c(C)cc4c(C(C)C)c(O)c(O)c(C=NCCC)c4c3O)c(O)c12` was tested, and the TGI [1] was 39.3 µM, the TGI [2] was 65.3 µM and the TGI [3] was > 100 µM. For the same compound, the TGI [4] was > 30.7 µM, the TGI [6] was > 100 µM and the TGI [7] was 13.4 µM. The TGI [8] was > 32.3 µM, the TGI [60] was 4.54 µM and the TGI [9] was > 100 µM. The TGI [10] was > 100 µM, the TGI [11] was 44.3 µM and the TGI [12] was 14.3 µM. For the same compound, the TGI [13] was 48.1 µM, the TGI [14] was > 23.6 µM and the TGI [15] was > 77.4 µM. For the same compound, the TGI [16] was 8.51 µM, the TGI [17] was > 100 µM and the TGI [18] was > 24.9 µM. The TGI [19] was > 100 µM, the TGI [20] was > 82.7 µM and the TGI [21] was > 32.6 µM. For the same compound, the TGI [61] was > 100 µM, the TGI [22] was 24.5 µM and the TGI [62] was 14.7 µM. The TGI [23] was > 21 µM, the TGI [63] was 20.1 µM and the TGI [25] was 71.1 µM. For the same compound, the TGI [26] was > 100 µM, the TGI [27] was > 100 µM and the TGI [28] was > 100 µM. The TGI [29] was > 70.1 µM, the TGI [30] was 47.8 µM and the TGI [31] was > 81.9 µM. For the same compound, the TGI [32] was > 61.1 µM, the TGI [33] was 5.73 µM and the TGI [34] was > 100 µM. For the same compound, the TGI [35] was > 24.4 µM, the TGI [36] was > 100 µM and the TGI [37] was > 50.3 µM. The TGI [38] was > 100 µM, the TGI [39] was 62.2 µM and the TGI [40] was > 100 µM. For the same compound, the TGI [41] was 16.5 µM, the TGI [42] was > 100 µM and the TGI [43] was > 24.7 µM. For the same compound, the TGI [44] was > 28.8 µM, the TGI [45] was 7.44 µM and the TGI [46] was > 78.3 µM. The TGI [47] was 49.1 µM, the TGI [48] was > 30.8 µM and the TGI [49] was 93.6 µM. For the same compound, the TGI [50] was > 100 µM, the TGI [51] was > 100 µM and the TGI [64] was 13.4 µM. The TGI [52] was > 100 µM, the TGI [53] was > 100 µM and the TGI [54] was > 100 µM. The TGI [55] was > 100 µM, the TGI [56] was 44.8 µM and the TGI [57] was > 40.1 µM. For the same compound, the TGI [59] was 22.6 µM.
